Our source for the IC50 values is patent US5627203A, “Tricyclic oxime ethers” (Adir et Compagnie, priority 1994, dated 1997).

Holding throughout (assay type): binding
In one experiment the target is T1, serotonin reuptake site (Rattus norvegicus, UniProt P31652).
T1 construct: rat brain from which the cerebellum has been removed; from tissue; host or cells: rat brain without cerebellum
Kind of experiment: Displacement of 3H-paroxetine at the serotonin reuptake site. As to conditions: rat brain without cerebellum, read-out: IC50, serotonin reuptake sites. As for the experimental part: (§1) A-2: Study of the binding of the compounds of the invention to the serotonin reuptake site as well as to 5-HT1, 5-HT1A, 5-HT1B, 5-HT1D, 5-HT2, 5-HT2C, 5-HT4 serotoninergic receptors.
(§2) The binding of the compounds of the invention is measured in accordance with conventional methods.
for the serotonin reuptake site, by the displacement of ^3 H-paroxetinein rat brain from which the cerebellum has been removed, […]

Another experiment addresses 5-HT1 receptors. The experiment in a line: Displacement of 5-OH tryptamine at 5-HT1 receptors. The following applies: pig frontal cortex and striatum. As to the method:
as §1, §2
for 5-HT1 receptors, by the displacement of 5-OH tryptamine in pig frontal cortex and striatum, […]

In the next experiment the target is T2, 5-HT1A receptors (Rattus norvegicus, UniProt P19327).
T2 construct: rat hippocampus homogenates; from tissue; host or cells: rat hippocampus
T2 sequence (P19327 1-422): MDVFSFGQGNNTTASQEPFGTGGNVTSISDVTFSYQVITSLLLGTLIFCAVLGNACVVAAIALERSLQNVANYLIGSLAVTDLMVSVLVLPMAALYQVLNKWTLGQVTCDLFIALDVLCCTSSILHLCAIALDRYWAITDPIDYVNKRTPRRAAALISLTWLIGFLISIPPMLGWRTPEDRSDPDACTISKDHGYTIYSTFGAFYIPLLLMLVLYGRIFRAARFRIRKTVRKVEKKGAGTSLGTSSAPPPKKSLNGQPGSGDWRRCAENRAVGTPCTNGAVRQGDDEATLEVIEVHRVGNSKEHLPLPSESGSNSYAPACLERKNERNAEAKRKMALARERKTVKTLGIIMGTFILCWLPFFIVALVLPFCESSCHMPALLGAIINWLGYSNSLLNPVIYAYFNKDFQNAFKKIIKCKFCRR
Kind of experiment: Displacement of 8-OH-DPAT at 5-HT1A receptors. The following applies: rat hippocampus homogenates. As for the experimental part: as §1, §2
for 5-HT1A receptors, by the displacement of 8-OH-DPAT in rat hippocampus homogenates, […]

For a further experiment, the target named is T3, 5-HT1B receptors (Rattus norvegicus, UniProt P28564).
T3 construct: rat cortex, striatum, and globus pallidus homogenates; from tissue; host or cells: rat cortex, striatum and globus pallidus
The experiment in a line: Displacement of 5-hydroxytryptamine at 5-HT1B receptors. As to conditions: rat cortex, striatum, and globus pallidus homogenates. As to the method: as §1, §2
for 5-HT1B receptors, by the displacement of 5-hydroxytryptamine in rat cortex, striatum, and globus pallidus homogenates, […]

The target in the next experiment is 5-HT1D receptors. The experiment in a line: Displacement of 5-OH-tryptamine at 5-HT1D receptors. The following applies: rat cortex, striatum and globus pallidus homogenates. As to the method: as §1, §2
for 5-HT1D receptors, by the displacement of 5-OH-tryptamine in rat cortex, striatum and globus pallidus homogenates, […]

For another experiment, the target named is T4, 5-HT2 receptors (Rattus norvegicus, UniProt P14842).
T4 construct: rat frontal cortex homogenates; from tissue; host or cells: rat frontal cortex
Kind of experiment: Displacement of aminoiodoketaneserine at 5-HT2 receptors. The following applies: rat frontal cortex homogenates. As to the method:
as §1, §2
for 5-HT2 receptors, by the displacement of aminoiodoketaneserine in rat frontal cortex homogenates, […]

Another experiment has as its target T5, 5-HT2C receptors (Rattus norvegicus, UniProt P08909).
T5 construct: rat frontal cortex and hippocampus homogenates; from tissue; host or cells: rat frontal cortex and hippocampus
T5 sequence (P08909 33-460): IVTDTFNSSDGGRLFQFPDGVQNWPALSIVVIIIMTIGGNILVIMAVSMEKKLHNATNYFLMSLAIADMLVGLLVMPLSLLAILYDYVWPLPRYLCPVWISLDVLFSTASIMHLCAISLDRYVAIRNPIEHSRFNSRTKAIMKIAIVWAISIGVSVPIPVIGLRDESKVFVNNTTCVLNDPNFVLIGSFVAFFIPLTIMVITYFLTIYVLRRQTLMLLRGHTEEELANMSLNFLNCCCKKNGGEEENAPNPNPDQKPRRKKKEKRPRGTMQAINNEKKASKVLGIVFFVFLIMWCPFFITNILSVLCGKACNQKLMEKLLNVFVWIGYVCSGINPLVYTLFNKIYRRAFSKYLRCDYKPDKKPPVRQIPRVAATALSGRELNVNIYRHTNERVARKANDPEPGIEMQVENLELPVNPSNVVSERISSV
The experiment in a line: Displacement of N-methylmesulergine at 5-HT2C receptors. As to conditions: rat frontal cortex and hippocampus homogenates. As for the experimental part: as §1, §2
for 5-HT2C receptors, by the displacement of N-methylmesulergine in rat frontal cortex and hippocampus homogenates, […]

The next experiment deals with T6, 5-HT3 receptors (Rattus norvegicus, UniProt P35563).
T6 construct: rat area postrema homogenates; from tissue; host or cells: rat area postrema
T6 sequence (P35563 24-483): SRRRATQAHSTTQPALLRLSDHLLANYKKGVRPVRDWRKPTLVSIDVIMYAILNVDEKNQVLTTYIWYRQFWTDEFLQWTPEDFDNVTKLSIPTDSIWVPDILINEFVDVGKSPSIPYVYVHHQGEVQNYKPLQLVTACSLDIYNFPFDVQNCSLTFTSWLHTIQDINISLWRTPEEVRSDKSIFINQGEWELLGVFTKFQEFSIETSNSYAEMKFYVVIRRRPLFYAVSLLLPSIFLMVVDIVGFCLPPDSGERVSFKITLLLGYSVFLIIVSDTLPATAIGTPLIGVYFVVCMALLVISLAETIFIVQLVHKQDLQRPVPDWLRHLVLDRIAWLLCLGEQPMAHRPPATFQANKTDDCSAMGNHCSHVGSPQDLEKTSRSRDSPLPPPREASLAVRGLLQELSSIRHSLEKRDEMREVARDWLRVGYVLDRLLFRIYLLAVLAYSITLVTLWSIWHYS
The experiment in a line: Displacement of 3H-zacopride at 5-HT3 receptors. As to conditions: 0.3-0.4 nM 3H-zacopride, rat area postrema homogenates, pH 7.4, 25° C., 30 minutes. As to the method:
A-1: Study of the binding of the compounds of the invention to 5-HT3 serotoninergic receptors
The binding of the compounds of the invention to 5-HT3 receptors was determined for each compound by measuring the displacement of ^3 H-zacopride (specific ligand for 5-HT3 receptors) in rat area postrema homogenates.
Aliquot amounts (50-100 μl) of a membrane suspension (2.5-5.0 mg of protein/cm^3) are incubated for 30 minutes at 25° C. in a Tris-HCl buffer, 25 mM, pH 7,4, in the presence of 0.3-0.4 nM 3^H -zacopride (83 ci/mmol) (total volume: 0.5 cm^3). The incubation is terminated by filtering the samples through Whatman GF/B filters which are then washed and dried. The radioactivity retained on the filters is finally calculated by spectrometry in liquid medium (Aquasol). The non-specific binding is evaluated under the same conditions using samples containing in addition 1 μM of ondansetron (5-HT3 antagonist). The displacement curves obtained by adding increasing concentrations of a test compound to the incubation medium are analysed to determine the affinity of the test compounds for 5-HT3 receptors.
A general note: Loss of bound radioactivity is the signal in a displacement assay; it reports binding, not function.

What is called IC50 is the point on the concentration scale where inhibition reaches its midpoint.

T4 sequence (P14842 whole entry): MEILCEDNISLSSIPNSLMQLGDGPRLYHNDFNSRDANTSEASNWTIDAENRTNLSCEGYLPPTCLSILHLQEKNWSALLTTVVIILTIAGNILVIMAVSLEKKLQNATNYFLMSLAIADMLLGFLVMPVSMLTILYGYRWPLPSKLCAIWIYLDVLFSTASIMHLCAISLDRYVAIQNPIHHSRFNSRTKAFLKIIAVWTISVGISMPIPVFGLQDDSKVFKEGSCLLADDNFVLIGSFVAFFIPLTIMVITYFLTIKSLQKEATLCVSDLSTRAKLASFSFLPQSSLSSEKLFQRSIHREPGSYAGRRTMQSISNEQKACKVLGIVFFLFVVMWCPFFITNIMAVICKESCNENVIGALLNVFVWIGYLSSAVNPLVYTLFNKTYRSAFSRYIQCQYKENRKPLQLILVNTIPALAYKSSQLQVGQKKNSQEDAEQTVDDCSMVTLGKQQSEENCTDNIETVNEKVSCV
T3 sequence (P28564 whole entry): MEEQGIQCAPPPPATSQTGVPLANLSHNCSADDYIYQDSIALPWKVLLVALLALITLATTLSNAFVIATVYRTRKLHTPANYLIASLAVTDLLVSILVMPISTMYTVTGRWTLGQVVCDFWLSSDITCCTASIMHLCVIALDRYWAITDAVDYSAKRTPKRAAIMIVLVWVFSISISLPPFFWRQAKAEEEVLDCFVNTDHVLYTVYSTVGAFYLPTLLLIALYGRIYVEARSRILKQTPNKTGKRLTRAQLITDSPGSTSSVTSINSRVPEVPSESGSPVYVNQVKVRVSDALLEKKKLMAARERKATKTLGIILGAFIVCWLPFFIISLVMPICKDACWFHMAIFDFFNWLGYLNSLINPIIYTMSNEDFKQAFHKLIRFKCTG
T1 sequence (P31652 whole entry): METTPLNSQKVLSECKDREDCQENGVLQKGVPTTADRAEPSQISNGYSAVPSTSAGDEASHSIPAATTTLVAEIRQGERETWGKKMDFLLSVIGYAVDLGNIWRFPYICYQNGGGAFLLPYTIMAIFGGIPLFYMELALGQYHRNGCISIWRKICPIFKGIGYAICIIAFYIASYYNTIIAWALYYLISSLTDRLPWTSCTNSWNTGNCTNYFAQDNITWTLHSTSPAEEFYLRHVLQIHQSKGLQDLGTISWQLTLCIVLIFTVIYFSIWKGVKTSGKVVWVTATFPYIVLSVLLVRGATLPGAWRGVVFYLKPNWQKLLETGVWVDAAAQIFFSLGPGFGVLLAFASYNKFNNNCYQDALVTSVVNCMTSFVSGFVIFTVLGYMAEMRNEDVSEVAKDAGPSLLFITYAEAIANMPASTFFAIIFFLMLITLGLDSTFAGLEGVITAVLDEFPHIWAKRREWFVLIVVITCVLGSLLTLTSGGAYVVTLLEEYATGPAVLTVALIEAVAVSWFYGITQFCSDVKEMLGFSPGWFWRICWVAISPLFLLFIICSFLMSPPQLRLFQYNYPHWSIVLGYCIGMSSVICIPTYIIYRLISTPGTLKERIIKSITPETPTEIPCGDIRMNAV

For the compound `Cc1csc2c1-n1cccc1/C2=N/OCCNCc1ccccc1` [Example 41, (Z)-3-Methyl-8-{[2-(N-benzylamino)ethoxy]imino}thieno[2,3-d]pyrrolo[1,2-a]-pyrrole], the IC50 on serotonin reuptake site is 0.11 µM; on 5-HT1 receptors it was 2.7 µM; on 5-HT1A receptors, 9.2 µM; at 5-HT1B receptors it was 4.4 µM; at 5-HT1D receptors, 11 µM; on 5-HT2 receptors, 4.1 µM. The compound also yielded an IC50 on 5-HT2C receptors of 0.413 µM.

Take `CCN(CC)CCON=C1c2scc(C)c2-n2cccc21` [Example 15]: the IC50 at serotonin reuptake site came out at 0.13 µM; at 5-HT1 receptors, 11 µM; at 5-HT1A receptors it was 21 µM; on 5-HT1B receptors, 6.4 µM; on 5-HT1D receptors it was 4 µM; at 5-HT2 receptors it was 13 µM. Also, the IC50 on 5-HT2C receptors came to 0.84 µM; on 5-HT3 receptors, 0.005 µM.

For `Cc1csc2c1-n1cccc1C2=NOCCN1CCCCC1` [Example 18], the IC50 at serotonin reuptake site was found to be 0.26 µM; on 5-HT1 receptors, 5.1 µM; at 5-HT1A receptors it was 5.7 µM; on 5-HT1B receptors it was 14 µM; at 5-HT1D receptors, 7.5 µM; on 5-HT2 receptors it was 5.2 µM. In addition, the IC50 at 5-HT2C receptors turned out to be 1.2 µM; on 5-HT3 receptors it was 0.004 µM.

As for `CC(CON=C1c2ccccc2-n2cccc21)N(C)C` (centres unmarked) [Example 55], the IC50 was found to be 0.32 µM at serotonin reuptake site; 2.8 µM on 5-HT1 receptors; 3.8 µM on 5-HT1A receptors; 4.4 µM on 5-HT1B receptors; 1.4 µM at 5-HT1D receptors; 12 µM on 5-HT2 receptors. In addition, the IC50 at 5-HT2C receptors amounted to 4.1 µM; on 5-HT3 receptors it was 0.0053 µM.

Consider `Cc1csc2c1-n1cccc1C2=NOCCN1CCCC1` [Example 17], for which the 50% inhibitory concentration (IC50) at serotonin reuptake site came out at 0.3 µM; at 5-HT1 receptors, 3 µM; at 5-HT1A receptors it was 1.6 µM; on 5-HT1B receptors, 3.6 µM; at 5-HT1D receptors, 3.2 µM; at 5-HT2 receptors, 3.7 µM. Moreover, the IC50 at 5-HT2C receptors was found to be 0.71 µM; on 5-HT3 receptors, 0.002 µM.

Consider `CN(C)CCON=C1c2ccccc2-n2cccc21` [Example 54], for which the IC50 at serotonin reuptake site worked out at 0.93 µM; at 5-HT1 receptors, 0.14 µM; at 5-HT1A receptors, 1.1 µM; on 5-HT1B receptors, 1.1 µM; on 5-HT1D receptors it was 0.69 µM; at 5-HT2 receptors, 14 µM. On 5-HT2C receptors, the IC50 was determined as 1.4 µM.

Regarding `Cc1csc2c1-n1cccc1/C2=N/OCC(C)CN(C)C` (centres unmarked) [Example 23], the IC50 at serotonin reuptake site worked out at 5 µM; on 5-HT1 receptors, 9.6 µM; at 5-HT1A receptors, 52 µM; on 5-HT1B receptors, 24 µM; at 5-HT1D receptors it was 11 µM; at 5-HT2 receptors it was 14 µM. In addition, the IC50 at 5-HT2C receptors was 2 µM; on 5-HT3 receptors, 0.0054 µM.

Regarding `CN(C)CCON=C1c2cc(Cl)ccc2-n2cccc21` [Example 49, 7-Chloro-9-{[2-(N,N-dimethylamino)ethoxy]imino}pyrrolo[1,2-a]indole], the IC50 at serotonin reuptake site is 12 µM; at 5-HT1 receptors, 2.4 µM; on 5-HT1A receptors it was 21 µM; on 5-HT1B receptors, 1.4 µM; at 5-HT1D receptors it was 3.1 µM; at 5-HT2 receptors, 7.6 µM. Further, the IC50 at 5-HT2C receptors came out at 11 µM; on 5-HT3 receptors it was 0.086 µM.

As to `Cc1csc2c1-n1cccc1/C2=N/OCCN` [Example 40, (Z)-3-Methyl-8-[(2-amino-ethoxy)imino]thieno[2,3-d]pyrrolo[1,2-a]pyrrole], the half-inhibitory concentration (IC50) at serotonin reuptake site turned out to be 0.58 µM; on 5-HT1 receptors it was 0.9 µM; at 5-HT1A receptors, 3.1 µM; at 5-HT1B receptors it was 0.92 µM; on 5-HT1D receptors, 2.7 µM; on 5-HT2 receptors, 15 µM. Further, the IC50 at 5-HT2C receptors was 0.18 µM.

On to `Cc1csc2c1-n1cccc1/C2=N/OCCCN(C)C` [Example 14], for which the IC50 at serotonin reuptake site was 1.1 µM; at 5-HT1 receptors it was 11 µM; on 5-HT1A receptors, 22 µM; on 5-HT1B receptors, 32 µM; on 5-HT1D receptors it was 7 µM; at 5-HT2 receptors, 42 µM. This compound yielded an IC50 at 5-HT2C receptors of 18 µM.

On to `CN(C)CCON=C1c2sccc2-n2cccc21` [Example 4], for which the IC50 at serotonin reuptake site was determined as 0.89 µM; on 5-HT1 receptors it was 0.55 µM; on 5-HT1A receptors it was 0.48 µM; on 5-HT1B receptors, 0.61 µM; at 5-HT1D receptors, 0.41 µM; at 5-HT2 receptors, 5 µM. The compound further yielded an IC50 on 5-HT2C receptors of 0.82 µM.

As for `Cc1ccc2c(c1)C(=NOCCC1CCCN1C)c1cccn1-2` (centres unmarked) [Example 53], the IC50 at serotonin reuptake site was 24 µM; on 5-HT1 receptors it was 8.3 µM; at 5-HT1A receptors, 14 µM; at 5-HT1B receptors, 35 µM; on 5-HT1D receptors, 5.5 µM; at 5-HT2 receptors, 22 µM. In addition, the IC50 at 5-HT2C receptors was determined as 6 µM; on 5-HT3 receptors it was 0.037 µM.

With `CN1CCCC1CON=C1c2sccc2-n2cccc21` (racemic) [Example 13], the IC50 on serotonin reuptake site was 0.6 µM; at 5-HT1 receptors, 16 µM; at 5-HT1A receptors, greater than 100 µM; on 5-HT1B receptors it was 31 µM; on 5-HT1D receptors it was 11 µM; at 5-HT2 receptors, 14 µM. In addition, the IC50 on 5-HT2C receptors was found to be 1 µM; at 5-HT3 receptors, 0.002 µM.

Turning to `Cc1ccc2c(c1)C(=NOCC(C)N(C)C)c1cccn1-2` (centres unmarked) [Example 52], the IC50 on serotonin reuptake site was found to be 13 µM; at 5-HT1 receptors, 2 µM; on 5-HT1A receptors, 3.3 µM; at 5-HT1B receptors it was 3.8 µM; at 5-HT1D receptors, 0.81 µM; on 5-HT2 receptors, 8.4 µM. The IC50 on 5-HT2C receptors came out at 2.3 µM; at 5-HT3 receptors it was 0.044 µM.
